Assay results as given in US20110230367A1, “Amphiphilic Peptides Promoting Production of Target miRNA and Method of Regulating Production of Target miRNA” (SNU R&DB FOUNDATION, priority 2009, published 2011).
Read-outs that look alike come from different tables or passages of the source.

Tests used:
HBV (hairpin RNA) = test: Dissociation constant by competitive fluorescence anisotropy with rhodamine-rev peptide probe; format: binding; details: Table 6
Description: (§1) The binding affinity between the peptide synthesized in <Example 1> and pre-miRNA from <Example 2> were measured by fluorescence anisotropy using competitive binding method. A rev peptide with rhodamine attached at the N-terminal was used as a fluorescent probe and LS-55 luminescence spectrometer from Perkin-Elmer was use for analysis. A constant temperature of 20° C. was maintained by a water bath. The fluorescent intensity was measured by of 200 nM of rhodamine-rev peptide was measured with an excitation wavelength at 550 nm (band path 10 nm) and detection at 580 nm (band path 10 nm). The integration time […]. Each experimental value is the mean value of 5 measurements. A 20 mM of HEPES{4-(2-hydroxyethyl)-1-piperazineethanesulfonic acid} buffer (pH 7.5) containing 140 mM NaCl, 5 mM KCl and 1 mM MgCl2 was used for measuring the dissociation constant. The dissociation constant was determined according to the Mathematical Formula 1 and using Kaledia graph.
(§2) A and Ao are the fluorescence anistropy in the presence or absence of RNA, whereas ΔA is the difference between these two values. [RNA]0 and [Rh-rev]0 are initial concentrations of RNA and rev peptide binding with rhodamine.
(§3) According the method described in <Example 3>, the dissociation constant between second generation peptide and 2 pre-miRNAs synthesized from <Example 2> was determined using fluorescent polarization detection method and fluorescent probe molecule.

IRES (hairpin RNA) = test: as above; format: binding; details: Table 6
Description: as §1, §2, §3

pre-let7a-1 = test: as above; format: binding; details: for Discrimination ratio pre-let7a-1 (in parenthesis): Kd against other RNA (HBV, IRES, other miRNAs)/Kd against target miRNA
Description: as §1, §2, §3

pre-miR16-1 = test: as above; format: binding; details: for Discrimination ratio pre-miR16-1 (in parenthesis): Kd against other RNA/Kd against target miRNA
Description: as §1, §2, §3

pre-miR24-1 = test: as above; format: binding; details: for Kd / Discrimination ratio pre-miR24-1 (in parenthesis): Table 6; for Discrimination ratio pre-miR24-1 (in parenthesis): Kd against other RNA/Kd against target miRNA
Description: as §1, §2, §3

[1] = system: recombinant human Dicer processing pre-let7a-1; test: Dicer activity assay in the presence of peptide, substrate pre-let7a-1; format: biochemical; details: 400 nM peptide, pre-let7a-1 substrate, FIG. 2
Description: Two types of pre-miRNA (pre-let7a-1, pre-miR16-1) used as the substrate for the Dicer enzyme activity assay was ordered and manufactured by ST Pharm Co., Ltd (FIG. 1). For Dicer activity assay, the 5′ end of the synthesized pre-miRNA was labeled with ^32p isotope. Two pmole of each pre-miRNA was isotope labeled with […] of [g-^32P]ATP (New England Biolabs) using 10 units of T4 polynucleotide kinase (New England Biolabs). Total volume of 10 μl was isotope labeled for 1 hr at 37° C. The isotope labeled RNA obtained after the reaction was purified using G-25 Sephadex column (Sigma). The purified substrate was used for measuring Dicer enzyme activity. Total reaction mixture of 30 μl containing 1 nM of isotope labeled pre-miRNA and 0.001 u/μl of recombinant human Dicer (Genlantis, CA, USA) were incubated at 37° C. in 24 mM 4-(2-hydroxyethyl)-1-piperazineethanesulfonic acid, HEPES) buffer system containing 200 mM NaCl, 0.04 mM EDTA, 1 mM ATP and 2.5 mM MgCl2(pH 8.0). After reacting for 0, 10, 30, […], 3 μl of each reaction mixture was mixed with 5 μl of RNA gel loading buffer {95% formamide, 10 mM ethylenediaminetetraacetic acid (EDTA), 0.05% FF (xylene cyanol FF)} and incubated for 5 min at 65° C. The amount of the reaction product was determined by gel running in 15% polyacrylamide gel containing 7M urea, and then the initial reaction velocity (V0) from each reaction was compared. The initial reaction velocity (V0) of the enzyme is the reaction velocity of the initial linear time (until 30 min). Each initial velocity was normalized with the initial velocity from each substrate condition without peptide treatment. The initial reaction velocity of Dicer for pre-let7a-1 and pre-miR16-1 without peptide treatment were […] and 0.018 fmole/min, respectively. Each of the initial reaction velocity is a mean data of more than 3 measurements, and the standard deviation is shown as error bars.

[2] = system: recombinant human Dicer processing pre-miR16-1; test: Dicer activity assay in the presence of peptide, substrate pre-miR16-1; format: biochemical; details: 400 nM peptide, pre-miR16-1 substrate, FIG. 2
Description: Two types of pre-miRNA (pre-let7a-1, pre-miR16-1) used as the substrate for the Dicer enzyme activity assay was ordered and manufactured by ST Pharm Co., Ltd (FIG. 1). For Dicer activity assay, the 5′ end of the synthesized pre-miRNA was labeled with ^32p isotope. Two pmole of each pre-miRNA was isotope labeled with […] of [g-^32P]ATP (New England Biolabs) using 10 units of T4 polynucleotide kinase (New England Biolabs). Total volume of 10 μl was isotope labeled for 1 hr at 37° C. The isotope labeled RNA obtained after the reaction was purified using G-25 Sephadex column (Sigma). The purified substrate was used for measuring Dicer enzyme activity. Total reaction mixture of 30 μl containing 1 nM of isotope labeled pre-miRNA and 0.001 u/μl of recombinant human Dicer (Genlantis, CA, USA) were incubated at 37° C. in 24 mM 4-(2-hydroxyethyl)-1-piperazineethanesulfonic acid, HEPES) buffer system containing 200 mM NaCl, 0.04 mM EDTA, 1 mM ATP and 2.5 mM MgCl2(pH 8.0). After reacting for 0, 10, 30, 60 or 120 min in the presence of 400 nM concentration of 2b or 2c peptide, 3 μl of each reaction mixture was mixed with 5 μl of RNA gel loading buffer {95% formamide, 10 mM ethylenediaminetetraacetic acid (EDTA), 0.05% FF (xylene cyanol FF)} and incubated for 5 min at 65° C. The amount of the reaction product was determined by gel running in 15% polyacrylamide gel containing 7M urea, and then the initial reaction velocity (V0) from each reaction was compared. The initial reaction velocity (V0) of the enzyme is the reaction velocity of the initial linear time (until 30 min). Each initial velocity was normalized with the initial velocity from each substrate condition without peptide treatment. The initial reaction velocity of Dicer for pre-let7a-1 and pre-miR16-1 without peptide treatment were […] and 0.018 fmole/min, respectively. Each of the initial reaction velocity is a mean data of more than 3 measurements, and the standard deviation is shown as error bars.

[3] = Table 5, second generation peptides, read-out: Kd value against pre-let7a-1
[4] = Table 6, read-out: Kd pre-let7a-1
[5] = Table 5, second generation peptides, read-out: Kd value against pre-miR16-1
[6] = Table 6, read-out: Kd pre-miR16-1
[7] = Table 3, first generation peptides, 20° C., HEPES pH 7.5, read-out: Kd value with pre-let7a-1
[8] = Table 3, first generation peptides, 20° C., HEPES pH 7.5, read-out: Kd value with pre-miR16-1

Sequence | Kd (HBV (hairpin RNA)) [nM] | Kd (IRES (hairpin RNA)) [nM] | Kd (pre-let7a-1; [3]) [nM] | Discrimination ratio pre-let7a-1 (in parenthesis) (pre-let7a-1; Table 6) | Kd (pre-let7a-1; [4]) [nM] | Kd (pre-miR16-1; [5]) [nM] | Discrimination ratio pre-miR16-1 (in parenthesis) (pre-miR16-1; Table 6) | Kd (pre-miR16-1; [6]) [nM] | Kd (pre-miR24-1) [nM] | Discrimination ratio pre-miR24-1 (in parenthesis) (pre-miR24-1) | Kd (pre-let7a-1; [7]) [nM] | Kd (pre-miR16-1; [8]) [nM] | initial reaction velocity (V0) of Dicer, normalized to no peptide [1] | initial reaction velocity (V0) of Dicer, normalized to no peptide [2] | discrimination ratio for pre-miR24-1 (pre-miR24-1) | binding with pre-let7a-1 (pre-let7a-1) | binding with pre-miR16-1 (pre-miR16-1)
LKKLLKLLKKWWKLAG [Peptide 2h, Ac-LKKLLKLLKKWWKLAG, 19] | 5.7 | 1.7 | 1.5 | 1.8 | 1.5 | 2.6 | 1.0 | 2.6 | 1.5 | 1.9 |  |  |  |  |  |  | 
LKKLLKLWKKLLKLAG [Peptide 1e, Ac-LKKLLKLWKKLLKLAG] |  |  |  |  |  |  |  |  |  |  | 20 | 27 | did not increase | did not increase |  |  | 
LKKLLKWLKKLLKWAG [Peptide 2g, Ac-LKKLLKWLKKLLKWAG, 18] | 1 | 1.3 | 0.96 | 0.85 | 0.96 | 1.1 | 0.99 | 1.1 | 0.47 | 2.3 |  |  |  |  | 2.3 |  | 
WKKLWKLLKKLLKLAG [Peptide 2a, Ac-WKKLWKLLKKLLKLAG, 12] | 0.77 | 0.9 | 0.23 | 2.8 | 0.23 | 0.32 | 2.6 | 0.32 | 0.82 | 0.66 |  |  |  |  |  |  | 
WKKLLKLLKKLWKLAG [Peptide 2d, Ac-WKKLLKLLKKLWKLAG, 15] | 0.79 | 0.77 | 0.25 | 1.2 | 0.22 | 0.64 | 1.2 | 0.64 | 0.67 | 1.0 |  |  |  |  |  |  | 
LKKWLKLLKKLLKLAG [Peptide 1b, Ac-LKKWLKLLKKLLKLAG] |  |  |  |  |  |  |  |  |  |  | 0.68 | 1.2 |  |  |  |  | 
WKKLLKLLKKLLKLAG [Peptide 1a, Ac-WKKLLKLLKKLLKLAG] |  |  |  |  |  |  |  |  |  |  | 0.17 | 0.42 |  |  |  | significant increase in binding affinity | significant increase in binding affinity
LKKLWKLLKKLLKWAG [Peptide 2f, Ac-LKKLWKLLKKLLKWAG, 17] | 0.38 | 3.8 | 0.9 | 9.3 | 0.96 | 2.1 | 1.2 | 2.1 | 2.2 | 0.66 |  |  |  |  |  |  | 
